Source: US20070066996A1, “Modafinil-based neurorehabilitation of impaired neurological function associated with brian injury” (priority 2003, published 2007)
“Also recorded” adds a separate entry of the source. Marks after values point to notes of the source that are not given here.

Columns and labels:
[1] = test system: individuals who have sustained a brain injury; conditions: individuals with brain injury; L-dopa at high doses; co-filed international application; cited from earlier work
[2] = test system: chronic post-TBI patients with motor deficits; test: Pinch strength (mechanic dynamometer), open-label modafinil study; type: in vivo, human
Method: (§1) Two chronic post-TBI patients with motor deficits were treated for two consecutive weeks with modafinil (a single 200 mg/day dose, orally). Additionally, three hours after administration of the drug, these patients received one hour of occupational therapy in the morning and one hour of motor training at home in the afternoon. Primary outcomes were the pinch strength measured with a mechanic dynamometer, the number of blocks that the patient can pass in one minute in a box and block test, and the time required to complete a grooved pegboard test as described below.
The Pinch Force Dynamometer is a hand-held device capable of measuring instantaneous strength of the thumb and opposing finger or groupings of fingers as a function of time. The principle components are a pinch force transducer, instrumentation amplifier, and associated cables. Dynamic voltage representing instantaneous finger(s) pinch strength as a function of time is taken from the output of the instrumentation amplifier and sent to a laptop computer or to a data acquisition system for data manipulation, display, correlation with other data sources, and/or storage.
(§2) Patients were assessed at baseline, treated for two weeks, assessed at the end of the treatment, and assessed again 90 days after commencement of treatment.
(§3) Patients were chronic post-traumatic brain injured individuals that were treated for two consecutive weeks with a 200 mg/day, single dose, of modafinil from Monday through Friday. Additionally, the patients received one hour of occupational therapy three hours after the oral intake of the drug and one hour of motor training at home. Primary outcomes were the pinch strength measured with a mechanic dynamometer, the number of blocks that the patient could pass in one minute in a box and block test, and the time required to complete a grooved pegboard at baseline. Primary outcomes were assessed at two weeks and 90 days from commencement of treatment.

[3] = test system: chronic post-TBI patients with motor deficits; test: Box and Block Test of manual dexterity, open-label modafinil study; type: in vivo, human
Method: as §1
The “Box and Block Test” is a standardized test of manual dexterity, which provides a baseline for upper extremity manual dexterity and gross motor coordination. The test is quick and simple to administer and uses […] (1″) colored wooden blocks.
as §2, §3

[4] = test system: chronic post-TBI patients with motor deficits; test: Open-label study: overall functional motor performance and reported adverse effects; type: in vivo, human; conditions: two patients
Method: A clinical study was performed to evaluate the effect of modafinil on the functional outcome of the paretic arm of patients recovering from a brain injury.
as §1, §2, §3

extracellular dopamine = conditions: Wisor et al., J. Neuroscience 2001; cited from earlier work
[5] = test system: dopamine transporter knock-out mice; conditions: Wisor et al. 2001; cited from earlier work

SMILES: N[C@@H](Cc1ccc(O)c(O)c1)C(=O)O [L-dopa]
- treating impaired neurological function, including emergence from coma and other altered consciousness states [1]: particularly effective

SMILES: CN1CCc2cccc3c2[C@H]1Cc1ccc(O)c(O)c1-3 [apomorphine]
- treating impaired neurological function, including emergence from coma and other altered consciousness states [1]: particularly effective

SMILES: NC(=O)C[S+]([O-])C(c1ccccc1)c1ccccc1 (stereo not drawn) [modafinil, 2-[(diphenylmethyl)sulfinyl]acetamide]
- Pinch Strength ([2]; Patient 1, affected hand, 14 days, modafinil 200 mg/day orally for two weeks plus therapy, baseline 14.3): 16.8 Pounds
- Pinch Strength ([2]; Patient 1, affected hand, 90 days from commencement, baseline 14.3): 17.6 Pounds
- Pinch Strength ([2]; Patient 1, intact hand, 14 days, baseline 13.5): 14.6 Pounds
- Pinch Strength ([2]; Patient 1, intact hand, 90 days, baseline 13.5): 15 Pounds
- Pinch Strength ([2]; Patient 2, affected hand, 14 days, baseline 17): 21.3 Pounds
- Pinch Strength ([2]; Patient 2, affected hand, 90 days, baseline 17): 19.3 Pounds
- Pinch Strength ([2]; Patient 2, intact hand, 14 days, baseline 23): 24 Pounds
- Pinch Strength ([2]; Patient 2, intact hand, 90 days, baseline 23): 23.6 Pounds
- Box and Block ([3]; Patient 1, affected hand, 14 days, baseline 34): 46 # blocks passed in 1 min
- Box and Block ([3]; Patient 1, affected hand, 90 days, baseline 34): 46 # blocks passed in 1 min
- Box and Block ([3]; Patient 1, intact hand, 14 days, baseline 54): 59 # blocks passed in 1 min
- Box and Block ([3]; Patient 1, intact hand, 90 days, baseline 54): 55 # blocks passed in 1 min
- Box and Block ([3]; Patient 2, affected hand, 14 days, baseline 30): 40 # blocks passed in 1 min
- Box and Block ([3]; Patient 2, affected hand, 90 days, baseline 30): 40 # blocks passed in 1 min
- Box and Block ([3]; Patient 2, intact hand, 14 days, baseline 54 (table) / 62): 65 # blocks passed in 1 min
- Box and Block ([3]; Patient 2, intact hand, 90 days, baseline 54 (table) / 62): 76 # blocks passed in 1 min
- persistence of the improvements ([4]; 90 days after commencement of treatment): sustained at 90 days
- adverse effect reported with the medication ([4]; modafinil 200 mg/day orally, two weeks): Neither of the patients reported any adverse effect; also recorded: did not report any adverse effect
- functional motor performance in the intact hand ([4]; two-week course of modafinil): slight improvement
- functional motor performance in the paretic hands ([4]; two-week course of modafinil 200 mg/day orally): improved functional motor performance
- extracellular dopamine (extracellular dopamine): increased extracellular dopamine
- response to the action of modafinil [5]: unresponsive
